Test results as given in PubChem BioAssay AID272 (DTP/NCI, 2004).
Values joined by “and” are separate entries in the source; they are usually repeats but may differ in a detail not shown here. Equal entries are not always repeated. Inconclusive results are not listed.

Tested on: Lewis lung carcinoma i.m., BDF1 mice, T/C %
Assay: NCI In Vivo Anticancer Drug Screen. Data for tumor model Lewis Lung Carcinoma (intramuscular) in B6D2F1 (BDF1) mice
Procedure, shortened: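 Transplantable tumour model; readout survival or tumour size; value = treated (T) / vehicle control (C).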

[1] = endpoint: median survival time, dose: 0.5 mg/kg/injection, schedule: Q01DX011 (ip), vehicle: saline, higher = longer survival
[2] = endpoint: median survival time, dose: 1.0 mg/kg/injection, schedule: Q01DX011 (ip), vehicle: saline, higher = longer survival
[3] = endpoint: median survival time, dose: 2.0 mg/kg/injection, schedule: Q01DX011 (ip), vehicle: saline, higher = longer survival
[4] = endpoint: median survival time, dose: 4.0 mg/kg/injection, schedule: Q01DX011 (ip), vehicle: saline, higher = longer survival
[5] = endpoint: mean tumor weight (est.), dose: 0.5 mg/kg/injection, schedule: Q01DX011 (ip), vehicle: saline, higher = larger tumour
[6] = endpoint: mean tumor weight (est.), dose: 5.0 mg/kg/injection, schedule: Q01DX011 (ip), vehicle: saline, higher = larger tumour
[7] = endpoint: median survival time, dose: 0.25 mg/kg/injection, schedule: Q01DX011 (ip), vehicle: saline, higher = longer survival

Question: What does the source list for `O=C(O)CCCc1ccc(N(CCCl)CCCl)cc1`?
Answer: T/C (endpoint: mean tumor weight, dose: 2.5 mg/kg/injection, schedule: Q01DX011 (ip), vehicle: carboxymethylcellulose (CMC), higher = larger tumour): 92 % of control; T/C (endpoint: mean tumor weight, dose: 5.0 mg/kg/injection, schedule: Q01DX011 (ip), vehicle: carboxymethylcellulose (CMC), higher = larger tumour): 56 % of control; T/C (endpoint: mean tumor weight, dose: 10.0 mg/kg/injection, schedule: Q01DX011 (ip), vehicle: carboxymethylcellulose (CMC), higher = larger tumour): 56 % of control; T/C [1]: 98 % of control and 101 % of control; T/C [2]: 91 % of control and 92 % of control; T/C [3]: 92 % of control and 110 % of control; T/C (endpoint: median survival time, dose: 2.5 mg/kg/injection, schedule: Q01DX011 (ip), vehicle: carboxymethylcellulose (CMC), higher = longer survival): 95 % of control; T/C [4]: 97 % of control and 118 % of control; T/C (endpoint: median survival time, dose: 5.0 mg/kg/injection, schedule: Q01DX011 (ip), vehicle: carboxymethylcellulose (CMC), higher = longer survival): 122 % of control; T/C (endpoint: median survival time, dose: 8.0 mg/kg/injection, schedule: Q01DX011 (ip), vehicle: saline, higher = longer survival): 88 % of control and 105 % of control; T/C (endpoint: median survival time, dose: 10.0 mg/kg/injection, schedule: Q01DX011 (ip), vehicle: carboxymethylcellulose (CMC), higher = longer survival): 108 % of control

Question: For `COc1cc([C@@H]2c3cc4c(cc3[C@@H](OC3OC5COC(C)OC5C(O)C3O)[C@H]3COC(=O)[C@H]23)OCO4)cc(OC)c1O` (some centres undefined), which T/C (endpoint: mean tumor weight (est.), dose: 0.25 mg/kg/injection, schedule: Q01DX011 (ip), vehicle: saline, higher = larger tumour) is on record?
Answer: 72 % of control

Question: And the T/C [5]?
Answer: 67 % of control

Question: And the T/C (endpoint: mean tumor weight (est.), dose: 1.0 mg/kg/injection, schedule: Q01DX011 (ip), vehicle: saline, higher = larger tumour)?
Answer: 79 % of control

Question: What about the T/C (endpoint: mean tumor weight (est.), dose: 2.0 mg/kg/injection, schedule: Q01DX011 (ip), vehicle: saline, higher = larger tumour) of the same compound?
Answer: 74 % of control

Question: What about the T/C (endpoint: mean tumor weight (est.), dose: 4.0 mg/kg/injection, schedule: Q01DX011 (ip), vehicle: saline, higher = larger tumour) of the same compound?
Answer: 43 % of control

Question: What about the T/C [6] of the same compound?
Answer: 105 % of control

Question: What about the T/C [7] of the same compound?
Answer: 96 % of control

Question: What about the T/C [1] of the same compound?
Answer: 98 % of control

Question: And the T/C [2]?
Answer: 96 % of control

Question: And the T/C [3]?
Answer: 107 % of control

Question: And the T/C [4]?
Answer: 101 % of control

Question: How did the T/C (endpoint: mean tumor weight, dose: 0.25 mg/kg/injection, schedule: Q01DX011 (ip), vehicle: saline, higher = larger tumour) turn out when `COC(=O)C[C@](O)(CCC(C)(C)O)C(=O)O[C@@H]1C(OC)=C[C@]23CCCN2CCc2cc4c(cc2[C@H]13)OCO4` was run?
Answer: 103 % of control

Question: And the T/C (endpoint: mean tumor weight, dose: 0.5 mg/kg/injection, schedule: Q01DX011 (ip), vehicle: saline, higher = larger tumour)?
Answer: 104 % of control

Question: What about the T/C (endpoint: mean tumor weight, dose: 0.5 mg/kg/injection, schedule: Q01DX011 (ip), vehicle: water, higher = larger tumour) of the same compound?
Answer: 75 % of control

Question: And the T/C (endpoint: mean tumor weight, dose: 1.0 mg/kg/injection, schedule: Q01DX011 (ip), vehicle: water, higher = larger tumour)?
Answer: 106 % of control

Question: And the T/C [7]?
Answer: 114 % of control

Question: And the T/C [1]?
Answer: 114 % of control

Question: `NCC(=O)c1ccc(O)c(O)c1` was tested. Which T/C (endpoint: mean tumor weight (est.), dose: 100.0 mg/kg/injection, schedule: Q01DX011 (ip), vehicle: saline, higher = larger tumour) did it give?
Answer: 76 % of control

Question: And the T/C (endpoint: mean tumor weight (est.), dose: 200.0 mg/kg/injection, schedule: Q01DX011 (ip), vehicle: saline, higher = larger tumour)?
Answer: 58 % of control

Question: And the T/C (endpoint: median survival time, dose: 200.0 mg/kg/injection, schedule: Q01DX011 (ip), vehicle: saline, higher = longer survival)?
Answer: 96 % of control

Question: With `Nc1cc(S(N)(=O)=O)ccc1SSc1ccc(S(N)(=O)=O)cc1N` as the compound, how does the T/C (endpoint: mean tumor weight (est.), dose: 62.5 mg/kg/injection, schedule: Q01DX011 (ip), vehicle: saline with Tween-80, higher = larger tumour) read?
Answer: 65 % of control

Question: And the T/C (endpoint: mean tumor weight (est.), dose: 125.0 mg/kg/injection, schedule: Q01DX011 (ip), vehicle: saline with Tween-80, higher = larger tumour)?
Answer: 24 % of control

Question: What about the T/C (endpoint: median survival time, dose: 62.5 mg/kg/injection, schedule: Q01DX011 (ip), vehicle: saline with Tween-80, higher = longer survival) of the same compound?
Answer: 103 % of control

Question: And the T/C (endpoint: median survival time, dose: 125.0 mg/kg/injection, schedule: Q01DX011 (ip), vehicle: saline with Tween-80, higher = longer survival)?
Answer: 98 % of control

Question: How did the T/C [6] turn out when `COC1N(C2CC(O)C(CO)O2)C(=O)NC(=O)C1(F)Br` (centres undefined) was run?
Answer: 87 % of control

Question: And the T/C (endpoint: mean tumor weight (est.), dose: 10.0 mg/kg/injection, schedule: Q01DX011 (ip), vehicle: saline, higher = larger tumour)?
Answer: 29 % of control

Question: And the T/C (endpoint: mean tumor weight (est.), dose: 20.0 mg/kg/injection, schedule: Q01DX011 (ip), vehicle: saline, higher = larger tumour)?
Answer: 7 % of control

Question: What about the T/C (endpoint: median survival time, dose: 5.0 mg/kg/injection, schedule: Q01DX011 (ip), vehicle: saline, higher = longer survival) of the same compound?
Answer: 103 % of control

Question: Which results are given for `Nc1ncnc2c1ccn2C1OC(CO)C(O)C1O` (centres undefined)?
Answer: T/C (endpoint: median survival time, dose: 0.1 mg/kg/injection, schedule: Q01DX011 (ip), vehicle: steriod suspending solution, higher = longer survival): 90 % of control; T/C (endpoint: median survival time, dose: 0.19 mg/kg/injection, schedule: Q01DX011 (ip), vehicle: steriod suspending solution, higher = longer survival): 101 % of control; T/C (endpoint: median survival time, dose: 0.25 mg/kg/injection, schedule: Q01DX011 (ip), vehicle: carboxymethylcellulose (CMC), higher = longer survival): 106 % of control; T/C (endpoint: median survival time, dose: 0.38 mg/kg/injection, schedule: Q01DX011 (ip), vehicle: steriod suspending solution, higher = longer survival): 92 % of control; T/C (endpoint: median survival time, dose: 0.5 mg/kg/injection, schedule: Q01DX009 (ip), vehicle: Klucel (hydroxypropylcellulose) (HPC), higher = longer survival): 98 % of control; T/C (endpoint: median survival time, dose: 0.5 mg/kg/injection, schedule: Q01DX011 (ip), vehicle: carboxymethylcellulose (CMC), higher = longer survival): 100 % of control; T/C (endpoint: median survival time, dose: 0.75 mg/kg/injection, schedule: Q01DX011 (ip), vehicle: steriod suspending solution, higher = longer survival): 86 % of control; T/C (endpoint: median tumor weight (est.), dose: 0.1 mg/kg/injection, schedule: Q01DX011 (ip), vehicle: steriod suspending solution, higher = larger tumour): 70 % of control; T/C (endpoint: median tumor weight (est.), dose: 0.19 mg/kg/injection, schedule: Q01DX011 (ip), vehicle: steriod suspending solution, higher = larger tumour): 96 % of control; T/C (endpoint: median tumor weight (est.), dose: 0.38 mg/kg/injection, schedule: Q01DX011 (ip), vehicle: steriod suspending solution, higher = larger tumour): 70 % of control; T/C (endpoint: median tumor weight (est.), dose: 0.75 mg/kg/injection, schedule: Q01DX011 (ip), vehicle: steriod suspending solution, higher = larger tumour): 84 % of control

Question: What does the source list for `CCCCCCCCCCCCCC[n+]1ccccc1`?
Answer: T/C (endpoint: mean tumor weight (est.), dose: 0.06 mg/kg/injection, schedule: Q01DX011 (ip), vehicle: saline, higher = larger tumour): 82 % of control; T/C (endpoint: mean tumor weight (est.), dose: 0.07 mg/kg/injection, schedule: Q01DX011 (ip), vehicle: saline, higher = larger tumour): 46 % of control; T/C (endpoint: mean tumor weight (est.), dose: 0.12 mg/kg/injection, schedule: Q01DX011 (ip), vehicle: saline, higher = larger tumour): 80 % of control; T/C (endpoint: mean tumor weight (est.), dose: 0.13 mg/kg/injection, schedule: Q01DX011 (ip), vehicle: saline, higher = larger tumour): 42 % of control; T/C [5]: 84 % of control; T/C (endpoint: median survival time, dose: 0.06 mg/kg/injection, schedule: Q01DX011 (ip), vehicle: saline, higher = longer survival): 100 % of control; T/C (endpoint: median survival time, dose: 0.07 mg/kg/injection, schedule: Q01DX011 (ip), vehicle: saline, higher = longer survival): 93 % of control; T/C (endpoint: median survival time, dose: 0.12 mg/kg/injection, schedule: Q01DX011 (ip), vehicle: saline, higher = longer survival): 100 % of control; T/C (endpoint: median survival time, dose: 0.13 mg/kg/injection, schedule: Q01DX011 (ip), vehicle: saline, higher = longer survival): 100 % of control; T/C [7]: 91 % of control and 94 % of control; T/C [1]: 100 % of control

Question: Which T/C (endpoint: mean tumor weight (est.), dose: 40.0 mg/kg/injection, schedule: Q01DX011 (ip), vehicle: saline, higher = larger tumour) does the source give for `O=C1NC(=O)C(F)(F)C(O)N1` (centres undefined) here?
Answer: 103 % of control

Question: And the T/C (endpoint: mean tumor weight (est.), dose: 80.0 mg/kg/injection, schedule: Q01DX011 (ip), vehicle: saline, higher = larger tumour)?
Answer: 80 % of control

Question: What about the T/C (endpoint: mean tumor weight (est.), dose: 160.0 mg/kg/injection, schedule: Q01DX011 (ip), vehicle: saline, higher = larger tumour) of the same compound?
Answer: 43 % of control

Question: And the T/C (endpoint: median survival time, dose: 40.0 mg/kg/injection, schedule: Q01DX011 (ip), vehicle: saline, higher = longer survival)?
Answer: 98 % of control

Question: What about the T/C (endpoint: median survival time, dose: 80.0 mg/kg/injection, schedule: Q01DX011 (ip), vehicle: saline, higher = longer survival) of the same compound?
Answer: 103 % of control

Question: For `CC(C)NCC(O)COc1cccc2ccccc12` (centres undefined), which T/C (endpoint: median survival time, dose: 8.0 mg/kg/injection, schedule: Q01DX009 (ip), vehicle: Klucel (hydroxypropylcellulose) (HPC), higher = longer survival) is on record?
Answer: 121 % of control

Question: And the T/C (endpoint: median survival time, dose: 16.0 mg/kg/injection, schedule: Q01DX009 (ip), vehicle: Klucel (hydroxypropylcellulose) (HPC), higher = longer survival)?
Answer: 121 % of control

Question: What about the T/C (endpoint: median survival time, dose: 32.0 mg/kg/injection, schedule: Q01DX009 (ip), vehicle: Klucel (hydroxypropylcellulose) (HPC), higher = longer survival) of the same compound?
Answer: 90 % of control

Question: And the T/C (endpoint: median survival time, dose: 64.0 mg/kg/injection, schedule: Q01DX009 (ip), vehicle: Klucel (hydroxypropylcellulose) (HPC), higher = longer survival)?
Answer: 110 % of control

Question: For `O=C(O)CCCC1CCCCC1.[Cu+2]`, which T/C (endpoint: mean tumor weight (est.), dose: 6.25 mg/kg/injection, schedule: Q01DX011 (ip), vehicle: saline with Tween-80, higher = larger tumour) is on record?
Answer: 61 % of control

Question: For `CN(C)C(=S)S`, which T/C (endpoint: mean tumor weight, dose: 125.0 mg/kg/injection, schedule: Q01DX011 (ip), vehicle: saline, higher = larger tumour) is on record?
Answer: 58 % of control and 59 % of control

Question: And the T/C (endpoint: mean tumor weight, dose: 250.0 mg/kg/injection, schedule: Q01DX011 (ip), vehicle: saline, higher = larger tumour)?
Answer: 57 % of control

Question: What about the T/C (endpoint: median survival time, dose: 125.0 mg/kg/injection, schedule: Q01DX011 (ip), vehicle: saline, higher = longer survival) of the same compound?
Answer: 102 % of control
